Results on one compound are retold here after US20250339392A1, “THE USE OF LRRC8 PROTEIN […] PREVENT AND TREAT CARDIOVASCULAR DISEASE” (Washington University, priority 2022, published 2025).

Assay [1] deals with T1, LRRC8 channel (Mus musculus, UniProt Q80WG5).
T1 construct: endogenous in cells; host or cells: freshly isolated murine megakaryocytes (WT = LRRC8A fl/fl littermate controls)
T1 sequence (Q80WG5 1-810): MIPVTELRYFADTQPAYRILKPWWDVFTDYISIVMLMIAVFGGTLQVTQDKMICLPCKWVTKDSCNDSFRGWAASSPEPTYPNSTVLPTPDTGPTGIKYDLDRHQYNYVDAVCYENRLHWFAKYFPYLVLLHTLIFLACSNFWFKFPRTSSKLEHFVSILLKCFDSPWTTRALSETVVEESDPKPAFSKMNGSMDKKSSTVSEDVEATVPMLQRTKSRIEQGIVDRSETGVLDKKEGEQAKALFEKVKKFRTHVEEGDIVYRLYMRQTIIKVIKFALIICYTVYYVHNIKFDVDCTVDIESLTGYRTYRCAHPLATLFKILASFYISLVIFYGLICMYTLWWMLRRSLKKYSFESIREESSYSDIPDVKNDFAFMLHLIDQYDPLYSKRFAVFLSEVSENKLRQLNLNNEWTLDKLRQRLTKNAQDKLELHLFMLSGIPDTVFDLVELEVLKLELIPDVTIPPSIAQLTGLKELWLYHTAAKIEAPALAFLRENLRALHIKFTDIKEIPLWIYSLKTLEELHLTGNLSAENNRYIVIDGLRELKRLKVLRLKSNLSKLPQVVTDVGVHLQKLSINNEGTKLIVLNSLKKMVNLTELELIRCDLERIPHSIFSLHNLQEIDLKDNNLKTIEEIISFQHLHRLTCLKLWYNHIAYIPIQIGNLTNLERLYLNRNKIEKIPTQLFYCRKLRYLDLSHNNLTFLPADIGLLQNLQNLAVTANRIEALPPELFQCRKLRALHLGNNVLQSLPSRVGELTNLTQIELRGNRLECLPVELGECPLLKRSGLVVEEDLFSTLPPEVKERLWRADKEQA
As to the kind of experiment: perforated patch-clamp of ICl,SWELL in freshly isolated murine megakaryocytes. The conditions noted are these: for inhibition of swell-activated current: murine MK, hypotonic solution (HYPO, 205 mOsm), 10 μM. Also noted: inhibition of ICI,SWELL currents: dose or concentration left out as unconfirmed. Format: cell-based. The source says:
FIG. 17A depicts a murine MK perforated patch-clamp. FIG. […] FIG. 17C depicts the current-voltage relationship in WT MK. FIG. 17D depicts the current-voltage relationship in cKO MK. FIG. 17E depicts mean outward and inward currents at +100 mV and −100 mV respectively, in WT, WT+SN401, and cKO MK. * p<0.05;** p<0.01.
To validate the biology implied by the human genetic studies, megakaryocyte (MK)-specific LRRC8A conditional knockout (cKO) mice were generated by crossing our LRRC8A^fl/fl mouse (SWELL1^fl/fl)^35-31 with the platelet factor4-driven Cre recombinase mouse (Pf4-Cre) to generate LRRC8A^fl/fl;Pf4-cre+/− (cKO) and littermate control LRRC8A^fl/fl mice (WT). Complete deletion of LRRC8A protein from cKO mouse platelets was confirmed while maintaining expression of the platelet marker b3 integrin (FIG. 16). To confirm that LRRC8 proteins form functional VRAC/ICI,SWELL channels in platelets, ICI,SWELL was measured in freshly isolated murine MK using the perforated patch configuration of the patch-clamp technique (FIG. 17A). […] This hypotonically-activated, swell-activated current is entirely abolished in cKO MKs (FIG. 17C-17D), confirming the SN-401-inhibited current in murine MKs to be entirely LRRC8A mediated.

The test system of a further assay is C57BL/6 mice. As to the kind of experiment: tail wound thrombosis / tail bleeding assay. Format: in vivo, mouse. The procedure:
To determine if acute inhibition of LRRC8 channel activity affected platelet function in vivo, vehicle or the known LRRC8 channel inhibitor SN-401 (DCPIB) was administered to 25 to 30-week old C57BL/6 mice by IP injection, and in vivo thrombosis was quantified using an assay for tail wound thrombosis. Specifically, 20 minutes following IP injection with vehicle or 10 mg/kg SN-401, mouse tails were amputated 5 mm from the tail tip, placed in normal saline at 37° C. for 15 minutes, and the relative blood loss during that period was quantified by estimating the hemoglobin concentration in the normal saline by measuring light absorbance at 550 nm.
FIG. 24 depicts how SN-401 treatment increases mouse tail bleeding. Mice were pretreated with Vehicle or SN401 (10 mg/kg i.p×1) and tail bleeding quantified after 15 minutes by measuring absorbance of hemoglobin at 550 nm. * p<0.05.
To determine if acute inhibition of LRRC8 channel activity affected platelet function in vivo, vehicle or the known LRRC8 channel inhibitor SN-401 (DCPIB) was administered to 25 to 30-week old C57BL6 mice by IP injection, and in vivo thrombosis was quantified using an assay for tail wound thrombosis. […]

The test system of a further assay is human platelets. As to the kind of experiment: platelet adhesion to collagen in microfluidic device, human whole blood. Format: cell-based. The conditions noted are these: 10 μM, collagen-coated microfluidic chamber, vs vehicle (DMSO). The procedure:
Human blood from 4 donors was collected into heparin anticoagulant, pooled and incubated with the fluorescently label DiOC6 (3,39-dihexyloxacarbocyanine iodide; Invitrogen) and either 10 μM SN-401 (DCPIB) or vehicle (DMSO) for 10 minutes. The whole blood was perfused through a polydimethysiloxane (PDMS) microfluidic device plasma bonded to a glass slide patterned with bovine type 1 collagen at a constant upstream pressure for 5 minutes followed by PBS for 5 minutes. Platelet accumulation was captured using an Olympus IX83 inverted microscope and the surface area coverage of platelets quantified using ImageJ.
FIG. 23A-23B depict how SN-401 impairs human platelet adhesion under physiologic shear-flow conditions in collagen-coated microfluidic flow chambers. n=4 blood draws from 4 subjects on 2 separate days. FIG. 23A depicts the percentage of surface area covered by adherent platelets over time in human whole-blood treated with vehicle or 10 μM SN-401. p=0.1 for 2-way Anova. FIG. 23B depicts the area under the curve (AUC) calculated from FIG. 23A for vehicle and SN-401. p=0.1 for t-test.

In assay [2] the target is T2, LRRC8 channel (Homo sapiens, UniProt Q8IWT6).
T2 construct: endogenous in cells; host or cells: HEK cells
T2 sequence (Q8IWT6 1-810): T1 sequence (Q80WG5 1-810) with S75P, S76G, V86I, A276I, V591A, V715I, A722T, S792N
Description: swell-activated currents recorded from HEK cells. It counts as cell-based. The source says: FIG. 25A-25D depict how congeners SN-418 and SN-418C are potent inhibitors of swell-activated currents recorded from HEK cells. FIG. 25A depicts the chemical structure of SN-418. FIG. 25B depicts the chemical structure of SN-418C. FIG. 25C depicts currents in the presence of varying concentrations of SN-418 and SN-401 normalized to the currents activated in hypotonic solution alone. […] FIG. 25D depicts currents in the presence of varying concentrations of SN-418C and SN-401 normalized to the currents activated in hypotonic solution alone.
Examples of these are SN-418 and SN-418C (FIG. 25A&25B), which include modification in the alkyl chain+/−cyclopropyl group to increase LRRC8 channel inhibition ˜10-fold over SN-401 (FIG. 25C&25D). SN-418C was then tested for antiplatelet activity in vitro.

The next assay concerns MEG01 cells. Description: swell-activated currents in human MK cell line MEG01. It counts as cell-based. The following applies: WT MEG01 cells, hypotonic solution (HYPO, 210 mOsm), 10 μM. The procedure:
FIG. 29A-29C depicts how the human MK cell line, MEG01, had robust, SN-4XX-inhibited, swell-activated currents. FIG. 29A depicts current density over time in response to swelling with hypotonic solution (HYPO, 210 mOsm), and inhibition by 10 μM SN401 in WT MEG01 cells. FIG. 29B depicts the current-voltage relationship in WT MEG01 cells in response to HYPO and inhibition by 10 μM SN401. FIG. 29C depicts the current-voltage relationship in WT MEG01 cells in response to HYPO and inhibition by 3 μM SN418c.

Structures are written as SMILES. Where a chain is given by its changes, count along the chain named. “Also recorded” adds a separate entry of the source.

Regarding `CCCCC1(C2CCCC2)Cc2cc(OCCCC(=O)O)c(Cl)c(Cl)c2C1=O` (stereo not drawn) [SN-401, 4-((2-Butyl-6,7-dichloro-2-cyclopentyl-1-oxo-2,3-dihydro-1H-inden-5-yl)oxy)butanoic acid], the “inhibition of ICI,SWELL currents” value against LRRC8 channel [1] (WT MK, hypotonic swelling) is “fully inhibited”. Besides, the “inhibition of swell-activated current” value against LRRC8 channel [1] was “robust inhibition”; at LRRC8 channel [1] (listed as SN401), “inhibition”. The “mean amount of tail blood loss relative to vehicle” value in the assay on C57BL/6 mice (10 mg/kg IP, 20 minutes before tail amputation, 15 minutes, absorbance at 550 nm) is given as 4 fold. For the same compound, the tail bleeding entry in the assay on C57BL/6 mice (10 mg/kg i.p. x1, hemoglobin absorbance at 550 nm after 15 minutes) is reported as “increases”. In the assay on human platelets, the “adhesion of human platelets to collagen (surface area coverage)” value is given as “significantly reduced; also recorded: significantly inhibited; also recorded: impairs”. The midpoint of inhibition against LRRC8 channel [2], the IC50, lay at 4 µM. The “inhibition of swell-activated (ICI,SWELL) current” value was “completely inhibited” with MEG01 cells and “inhibition” with MEG01 cells (listed as SN401).
